These results are taken from paper PMC10159843, “Babesia duncani multi-omics identifies virulence factors and drug targets” (Nature Microbiology, 2023).

This test deals with BdATVR parasites. The test is classed as cell-based, Babesia duncani. Conditions: IC50 BdATVR versus WA1.

In the case of `O=C1C(O)=C([C@H]2CC[C@H](c3ccc(Cl)cc3)CC2)C(=O)c2ccccc21` [Atovaquone], the “fold resistance of BdATVR compared with WA1” value amounted to 15.2 fold.
